According to PubChem BioAssay (NCI):
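Grown in 96-well plates, cells were treated for 48 hours with each compound at five concentrations. Insufficient inhibition: endpoint recorded as highest concentration tested. GI50 = concentration required for 50% inhibition of growth. TGI is the concentration that stops growth completely.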

Tests used:
Assay in all cases: NCI tumour cell line growth inhibition, 48 h
[1] = system: HCC-2998 colon
[2] = system: HCT-15 colon
[3] = system: IGROV1 ovarian
[4] = system: M14 melanoma
[5] = system: MOLT-4 leukemia
[6] = system: NCI-H23 lung
[7] = system: TK-10 renal
[8] = system: U251 CNS
[9] = system: SR leukemia
[10] = system: PC-3 prostate

Compound: O=C(/C=C/c1ccccc1)CC1OC(=O)c2ccccc21 (centres undefined)
- TGI [1]: > 100 µM
- TGI [2]: > 100 µM
- TGI [3]: > 100 µM
- TGI [4]: > 100 µM
- TGI [5]: > 100 µM
- TGI [6]: > 100 µM
- TGI [7]: > 100 µM
- TGI [8]: > 100 µM

Compound: CC1CC#CCOC(=O)CCCC1=O (centres undefined)
- TGI [1]: > 100 µM
- TGI [3]: > 100 µM
- TGI [4]: > 100 µM
- TGI [5]: > 100 µM
- TGI [6]: > 100 µM
- TGI [7]: > 100 µM
- TGI [8]: > 100 µM

Compound: CC1CC2CC(=O)CC3(C1)C2CCCN3CCCO (centres undefined)
- TGI [3]: > 100 µM
- TGI [4]: > 100 µM
- TGI [5]: > 100 µM
- TGI [6]: > 100 µM
- TGI [9]: > 100 µM
- TGI [7]: > 100 µM
- TGI [8]: > 100 µM

Compound: CS(=O)(=O)OCCN1CCN(C(=O)c2cccc3c(Nc4ccc(S(=O)(=O)N=C(N)N)cc4)c4ccccc4nc23)CC1
- TGI [1]: > 100 µM
- TGI [2]: > 100 µM
- TGI [3]: > 100 µM
- TGI [4]: > 100 µM
- TGI [5]: > 100 µM
- TGI [6]: > 100 µM
- TGI [7]: > 100 µM
- TGI [8]: > 100 µM

Compound: Cc1ccc(-c2cc(-c3ccco3)c(C#N)c(=O)[nH]2)cc1
- TGI [1]: > 100 µM
- TGI [2]: > 100 µM
- TGI [3]: > 100 µM
- TGI [4]: > 100 µM
- TGI [5]: > 100 µM
- TGI [6]: > 100 µM
- TGI [7]: > 100 µM
- TGI [8]: > 100 µM

Compound: CN(C)c1ccc([O-])cc1.CN(C)c1ccc([O-])cc1.CN(C)c1ccc([O-])cc1.CN(C)c1ccc([O-])cc1.[Ti+4]
- GI50 [2]: > 100 µM
- TGI [2]: > 100 µM
- GI50 [3]: > 100 µM
- TGI [3]: > 100 µM
- GI50 [4]: > 100 µM
- TGI [4]: > 100 µM
- GI50 [5]: 38.1 µM
- TGI [5]: > 100 µM
- GI50 [6]: > 100 µM
- TGI [6]: > 100 µM
- GI50 [7]: > 100 µM
- TGI [7]: > 100 µM

Compound: COC(=O)C1C(O)CC(c2ccccn2)N(Cc2ccccc2)C1c1ccccn1 (centres undefined)
- TGI [1]: > 100 µM
- TGI [2]: > 100 µM
- TGI [3]: > 100 µM
- TGI [4]: > 100 µM
- TGI [5]: > 100 µM
- TGI [6]: > 100 µM
- TGI [7]: > 100 µM
- TGI [8]: > 100 µM

Compound: CC(=O)N[C@@H]1C(O)CN2C(=O)C(=O)O[C@H](C(O)CO)[C@@H]12 (some centres undefined)
- TGI [1]: > 100 µM
- TGI [3]: > 100 µM
- TGI [5]: > 100 µM
- TGI [7]: > 100 µM
- TGI [8]: > 100 µM

Compound: CCCCCCCCCCCCCCN
- TGI [1]: > 100 µM
- TGI [2]: > 100 µM
- TGI [3]: > 100 µM
- TGI [5]: > 100 µM
- TGI [6]: > 100 µM
- TGI [10]: > 100 µM
- TGI [7]: > 100 µM
- TGI [8]: > 100 µM

Compound: CN1CCN(c2ccc(NC(=O)c3nc4ccc5[nH]ncc5c4c4c3CCCC4)cc2C(F)(F)F)CC1
- GI50 [1]: 1.1 µM
- TGI [1]: 2.99 µM
- GI50 [2]: 0.845 µM
- TGI [2]: 1.78 µM
- GI50 [3]: 0.821 µM
- TGI [3]: 1.73 µM
- GI50 [4]: 0.861 µM
- TGI [4]: 1.71 µM
- GI50 [5]: 1.09 µM
- TGI [5]: 3.08 µM
- GI50 [6]: 1.5 µM
- TGI [6]: 6.71 µM
- GI50 [9]: 0.9 µM
- TGI [9]: 2.81 µM
- GI50 [7]: 1.04 µM
- TGI [7]: 2.2 µM
- GI50 [8]: 0.926 µM
- TGI [8]: 1.77 µM

Compound: Nc1nc2c(c(=O)[nH]1)NC(CO)CN2 (centres undefined)
- TGI [2]: > 100 µM
- TGI [3]: > 100 µM
- TGI [4]: > 100 µM
- TGI [5]: > 100 µM
- TGI [6]: > 100 µM
- TGI [7]: > 100 µM
- TGI [8]: > 100 µM

Compound: O=C(O)COc1ccc(O)c2c1C(=O)CCCC2=O
- TGI [1]: > 100 µM
- TGI [2]: > 100 µM
- TGI [3]: > 100 µM
- TGI [4]: > 100 µM
- TGI [5]: > 100 µM
- TGI [6]: > 100 µM
- TGI [7]: > 100 µM
- TGI [8]: > 100 µM
